From US20260072046A1 (priority 2015, published 2026)
Like-named read-outs stand apart in the source and are kept apart here.

Assays:
[1] = LC-MS/MS quantification of drugs in oral fluid of live and post-mortem dogs; settings: for detected and quantified in the sublingual region (oral fluid): Example 4, post-mortem dog, sublingual area
[2] = LC-MS/MS quantification of drugs in muscle tissue fluid from remains of a post-mortem individual
[3] = LC/MS/MS of muscle tissue homogenate (conventional method); settings: Example 5, remains of decedent; homogenate muscle tissue:plasma 1:4
[4] = human; for concentration detected in the sublingual region (oral fluid) / concentration detected in the submandibular gland (oral fluid): female
[5] = post-mortem dog SF10049, FIG. 28
[6] = PM50019 001a, liquid leaked from container
[7] = PM50019 001b, fluid expelled by pressing muscle tissue

## CC(=O)Nc1ccc(O)cc1 [acetaminophen]
[1]
  detected and quantified in the sublingual region (oral fluid): 12.20 ng/mL
[1]; [5]
  concentration in oral fluid: 0.0122 µg/mL

## CC(N)Cc1ccccc1 (stereo not shown) [amphetamine]
[2]; [6]
  concentration from the muscle tissue sample (muscle tissue fluid): 0.0104 µg/mL
[2]; [7]
  concentration from the muscle tissue sample (muscle tissue fluid): 0.0057 µg/mL
[3]
  concentration from the muscle tissue homogenate: < 100 ng/g

## CCCC(C)(COC(N)=O)COC(=O)NC(C)C (stereo not shown) [carisoprodol]
[4]
  concentration detected in the sublingual region (oral fluid): 0.0492 µg/mL
  concentration detected in the submandibular gland (oral fluid): 0.05438 µg/mL

## O=C1CN=C(c2ccccc2Cl)c2cc([N+](=O)[O-])ccc2N1 [clonazepam]
[4]
  concentration in oral fluid: 0.00034 µg/mL

## COc1ccc2c3c1O[C@H]1[C@@H](O)C=C[C@H]4[C@@H](C2)N(C)CC[C@@]341 [codeine]
[4]
  concentration detected in the sublingual region (oral fluid): 0.00564 µg/mL
  concentration detected in the submandibular gland (oral fluid): 0 µg/mL
  concentration in oral fluid: 0.00463 µg/mL

## CN(C)CCC=C1c2ccccc2C=Cc2ccccc21 [cyclobenzaprine]
[4]
  concentration in oral fluid: 0.00474 µg/mL

## NCC1(CC(=O)O)CCCCC1 [gabapentin]
[1]
  detected and quantified in the sublingual region (oral fluid): 205.00 ng/mL
[1]; [5]
  concentration in oral fluid: 0.205 µg/mL

## CNC1(c2ccccc2Cl)CCCCC1=O (stereo not shown) [ketamine]
[1]
  detected and quantified in the sublingual region (oral fluid): 408.30 ng/mL
[1]; live dog SF10085, FIG. 21
  concentration in oral fluid: 0.5983 µg/mL
[1]; live dog SF10086, FIG. 22
  concentration in oral fluid: 0.5921 µg/mL
[1]; live dog SF10087, FIG. 23
  concentration in oral fluid: 1.9149 µg/mL
[1]; live dog SF10088, FIG. 24
  concentration in oral fluid: 0.4262 µg/mL
[1]; live dog SF10092, FIG. 25
  concentration in oral fluid: 0.8442 µg/mL
[1]; [5]
  concentration in oral fluid: 0.4083 µg/mL
[1]; post-mortem dog SF10093, FIG. 26
  concentration in oral fluid: 0.2295 µg/mL

## CN[C@@H](C)Cc1ccccc1 [methamphetamine]
[2]; [6]
  concentration from the muscle tissue sample (muscle tissue fluid): 0.1131 µg/mL
[2]; [7]
  concentration from the muscle tissue sample (muscle tissue fluid): 0.0461 µg/mL
[3]
  concentration from the muscle tissue homogenate: 448+63 ng/g
[1]; live dog SF10048, FIG. 27
  concentration in oral fluid: 0.0162 µg/mL

## CN1CC[C@]23c4c5ccc(O)c4O[C@H]2[C@@H](O)C=C[C@H]3[C@H]1C5 [morphine]
[4]
  concentration detected in the sublingual region (oral fluid): 0.19742 µg/mL
  concentration detected in the submandibular gland (oral fluid): 0.01234 µg/mL

## COc1ccc2c3c1O[C@H]1C(=O)CC[C@@]4(O)[C@@H](C2)N(C)CC[C@]314 [oxycodone]
[4]
  concentration in oral fluid: 0.00553 µg/mL

## COc1cccc(C2(O)CCCCC2CN(C)C)c1 (stereo not shown) [tramadol]
[1]
  detected and quantified in the sublingual region (oral fluid): 49.70 ng/mL
[1]; [5]
  concentration in oral fluid: 0.0497 µg/mL
